In US20210255193A1, “LYSINE REACTIVE PROBES AND USES THEREOF” (The Scripps Research Institute, priority 2017, published 2021):
Each block holds one molecule with its values, some of them ahead of it.

Tests used:
[1] = target: T1, TPD52L2 Tumor protein D54 (Homo sapiens, UniProt O43399); assay: competitive isoTOP-ABPP; type: binding; parameters: key to isoTOP-ABPP reactivity ratio at lysine O43399_K90: R = MS1 peak area ratio, DMSO (heavy) / compound-treated (light); settings: for R value (DMSO/fragment) for probe 1 labeling: O43399_K90; for R value (DMSO/fragment) for probe 1 labeling / isoTOP-ABPP ratio (R) at liganded lysine O43399_K90 / isoTOP-ABPP reactivity ratio at lysine O43399_K90: 50 uM, in vitro; for R value (DMSO/fragment) for probe 1 labeling / isoTOP-ABPP reactivity ratio at lysine O43399_K90: 231 sol; for isoTOP-ABPP ratio (R) at liganded lysine O43399_K90: sol, 231
T1 construct: isoTOP-ABPP experiments performed in cell lysates (in vitro); endogenous in cells; host or cells: MDA-MB-231 soluble lysate
Experimental: (§1) In vitro covalent fragment treatment for isoTOP-ABPP. All compounds were made up as solutions in DMSO (100×) and were used at a final concentration of 50 μM for activated esters and 100 μM for guanidinylating agents. For each profiling sample, 0.5 ml of lysate was treated with 5 μl of the 100× compound stock solution or 5 μl of DMSO. Samples were treated with activated esters for
(§2) STP-alkyne labeling and click chemistry. For concentration-dependent reactivity measurements by isoTOP-ABPP, 0.5 ml proteome aliquots were treated at ambient temperature with 1 mM STP-alkyne 1 (5 μl of 100 mM stock in DMSO) and 0.1 mM STP alkyne 1 (5 μl of 10 mM stock in DMSO), respectively. For competitive isoTOP-ABPP, after in vitro fragment treatment (detailed above), the samples were labeled for 1 h at ambient temperature with 0.1 mM STP-alkyne 1 (5 μl of 10 mM stock in DMSO). Samples were conjugated by copper-mediated azide-alkyne cycloaddition (CuAAC) to either the light (1 mM STP-alkyne or fragment treated) or heavy (0.1 mM STP-alkyne or DMSO treated) TEV tags (10 μl of 5 mM stocks in DMSO, final concentration=100 μM) using tris(2-carboxyethyl)phosphine hydrochloride
(§3) R value calculation and processing. The ratios of light and heavy MS1 peaks for each unique peptide were quantified with a CIMAGE software using default parameters (3 MS1 acquisitions per peak and signal to noise threshold set to 2.5). For reactivity measurements by isoTOP-ABPP, the R value was calculated from the ratio of MS1 peak areas, comparing the 1 mM STP alkyne sample (light TEV tag) with the 0.1 mM STP alkyne sample (heavy TEV tag). For competitive isoTOP-ABPP, the R value was calculated from the ratio of MS1 peak areas, comparing the DMSO treated sample (heavy TEV tag) with the compound treated sample (light TEV tag). […] Ratios for unique peptide entries are calculated for each experiment; overlapping peptides with the same modified lysine (for example, different charge states, MudPIT chromatographic steps or tryptic termini) are grouped together and the median ratio is reported as the final ratio (R). The peptide ratios reported by CIMAGE were further filtered to ensure the removal or correction of low-quality ratios in each individual data set. The quality filters applied were the following: removal of half tryptic peptides; for ratios with high standard deviations from the median (90% of the median or above) the lowest ratio was taken instead of the median; removal of peptides with R=20 and only a single MS2 event triggered during the elution of the parent ion; manual annotation of all the peptides with ratios of 20, removing any peptides with low quality elution profiles that remained after the previous curation steps (only done for competitive isoTOP-ABPP).
(§4) Cross-data processing for fragment screening. For compound treated samples, biological replicates of the same condition were averaged, if the standard deviation was below 60% of the mean; otherwise, for lysines with at least one R value <4 for a particular compound, the lowest value of the ratio set was taken. For lysines, where all R values for a particular compound were ≥4, the average was reported. For peptides containing several possible modified lysines, the lysine with the highest number of quantification events was used for analysis and the remaining, redundant peptides were reported as alternative modification sites. Peptides included in the aggregate dataset (those used for further bioinformatics and statistical analyses) were required to have been quantified in 2 experiments for competitive isoTOP-ABPP. Lysines were categorized as liganded, if they had at least one ratio R≥4 (hit fragments). For liganded lysines with R=20 for all liganding events, lysines were required to have been quantified with R=20 in two separate experiments and were further required to have been quantified with R<20 in one additional experiment.

HK1 Hexokinase-1 = target: T2, HK1 Hexokinase-1 (Homo sapiens, UniProt P19367); assay: competitive isoTOP-ABPP; type: binding; parameters: key to isoTOP-ABPP reactivity ratio at lysine P19367_K510: R = MS1 peak area ratio, DMSO (heavy) / compound-treated (light); settings: for R value (DMSO/fragment) for probe 1 labeling: P19367_K510; for R value (DMSO/fragment) for probe 1 labeling / isoTOP-ABPP ratio (R) at liganded lysine P19367_K510 / isoTOP-ABPP reactivity ratio at lysine P19367_K510: 50 uM, in vitro; for R value (DMSO/fragment) for probe 1 labeling / isoTOP-ABPP reactivity ratio at lysine P19367_K510: 231 sol; for isoTOP-ABPP ratio (R) at liganded lysine P19367_K510: sol, 231
T2 construct: isoTOP-ABPP experiments performed in cell lysates (in vitro); endogenous in cells; host or cells: soluble proteome of human cancer cell lines (MDA-MB-231; Ramos and Jurkat also prepared)
T2 sequence (P19367 1-917): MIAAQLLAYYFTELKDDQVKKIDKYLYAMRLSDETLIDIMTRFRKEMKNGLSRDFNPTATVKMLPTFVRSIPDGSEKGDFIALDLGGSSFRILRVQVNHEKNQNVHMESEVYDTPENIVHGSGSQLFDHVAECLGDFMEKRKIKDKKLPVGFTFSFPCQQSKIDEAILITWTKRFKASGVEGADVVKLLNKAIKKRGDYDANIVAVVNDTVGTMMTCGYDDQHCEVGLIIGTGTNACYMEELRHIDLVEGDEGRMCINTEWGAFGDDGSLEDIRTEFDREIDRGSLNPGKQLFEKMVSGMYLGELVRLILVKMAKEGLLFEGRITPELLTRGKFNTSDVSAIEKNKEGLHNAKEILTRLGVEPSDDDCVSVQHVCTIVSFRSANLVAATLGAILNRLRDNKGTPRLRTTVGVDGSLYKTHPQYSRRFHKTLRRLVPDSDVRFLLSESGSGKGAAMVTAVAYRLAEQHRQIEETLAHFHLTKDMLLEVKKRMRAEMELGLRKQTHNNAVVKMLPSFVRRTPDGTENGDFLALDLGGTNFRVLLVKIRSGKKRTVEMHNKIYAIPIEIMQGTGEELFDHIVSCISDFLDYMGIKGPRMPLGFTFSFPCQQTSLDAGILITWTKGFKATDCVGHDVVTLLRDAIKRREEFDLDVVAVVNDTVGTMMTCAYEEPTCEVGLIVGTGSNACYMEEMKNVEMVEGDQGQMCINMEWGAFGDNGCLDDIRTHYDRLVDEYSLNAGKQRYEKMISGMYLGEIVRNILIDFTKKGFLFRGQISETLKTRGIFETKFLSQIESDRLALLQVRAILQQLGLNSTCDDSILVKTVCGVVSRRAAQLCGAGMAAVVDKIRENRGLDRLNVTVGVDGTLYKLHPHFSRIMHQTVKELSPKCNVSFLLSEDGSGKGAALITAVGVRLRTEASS
Experimental: as §1, §2, §3, §4

T1 sequence (O43399 whole entry, the tested form may be a part): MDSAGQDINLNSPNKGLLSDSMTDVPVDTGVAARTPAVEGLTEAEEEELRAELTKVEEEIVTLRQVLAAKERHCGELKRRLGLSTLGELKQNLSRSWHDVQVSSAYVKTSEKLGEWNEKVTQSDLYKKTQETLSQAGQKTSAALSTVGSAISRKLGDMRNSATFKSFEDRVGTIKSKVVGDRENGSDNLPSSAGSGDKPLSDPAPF

- isoTOP-ABPP ratio, lysine O43399_K90 ([1]; 50 uM_231_sol_in vitro): 1.8
- isoTOP-ABPP ratio, lysine P19367_K510 (HK1 Hexokinase-1; 50 uM_231_sol_in vitro): 0.8
SMILES: O=C(Oc1c(F)c(F)cc(F)c1F)c1cc(C(F)(F)F)cc(C(F)(F)F)c1 [fragment 48, 2,3,5,6-Tetrafluorophenyl 3,5-bis(trifluoromethyl)benzoate]

- R value (DMSO/fragment) for probe 1 labeling [1]: 2.6
- R value (DMSO/fragment) for probe 1 labeling (HK1 Hexokinase-1): 1.2
SMILES: O=C(CCc1cn(-c2ccccc2)nc1-c1ccccc1)Oc1c(F)c(F)c(F)c(F)c1F [fragment 19, Pentafluorophenyl 3-(1,3-diphenyl-1H-pyrazol-4-yl)propanoate]

SMILES: O=C(Oc1ccc([N+](=O)[O-])cc1[N+](=O)[O-])C(c1ccccc1)(c1ccccc1)c1ccccc1 [fragment 42, 2,4-Dinitrophenyl 2,2,2-triphenylacetate]
- isoTOP-ABPP ratio (R) at liganded lysine O43399_K90 [1]: 1.0
- isoTOP-ABPP ratio (R) at liganded lysine P19367_K510 (HK1 Hexokinase-1): 0.8

- R value (DMSO/fragment) for probe 1 labeling [1]: 2.0
- R value (DMSO/fragment) for probe 1 labeling (HK1 Hexokinase-1): 1.0
SMILES: O=C(Oc1c(F)c(F)c(F)c(F)c1F)c1cc(C(F)(F)F)cc(C(F)(F)F)c1 [fragment 21, Pentafluorophenyl 3,5-bis(trifluoromethyl)benzoate]

SMILES: CC(C)(C)OC(=O)NCCCC(=O)Oc1ccc([N+](=O)[O-])cc1[N+](=O)[O-] [fragment 41, 2,4-Dinitrophenyl 4-((tert-butoxycarbonyl)amino)butanoate]
- isoTOP-ABPP ratio (R) at liganded lysine O43399_K90 [1]: 1.3
- isoTOP-ABPP ratio (R) at liganded lysine P19367_K510 (HK1 Hexokinase-1): 12.6

- isoTOP-ABPP ratio, lysine O43399_K90 ([1]; 50 uM_231_sol_in vitro): 2.0
- isoTOP-ABPP ratio, lysine P19367_K510 (HK1 Hexokinase-1; 50 uM_231_sol_in vitro): 0.9
SMILES: O=C(Oc1c(F)c(F)c(C(F)(F)F)c(F)c1F)c1cc(C(F)(F)F)cc(C(F)(F)F)c1 [fragment 47, 2,3,5,6-Tetrafluoro-4-(trifluoromethyl)phenyl 3,5-bis(trifluoromethyl)benzoate]

SMILES: O=C(Oc1ccc([N+](=O)[O-])cc1[N+](=O)[O-])C1CCN(C(=O)OCc2ccccc2)CC1 [fragment 34, 1-Benzyl 4-(2,4-dinitrophenyl) piperidine-1,4-dicarboxylate]
- isoTOP-ABPP ratio (R) at liganded lysine O43399_K90 [1]: 1.8
- isoTOP-ABPP ratio (R) at liganded lysine P19367_K510 (HK1 Hexokinase-1): 20.0

SMILES: O=C(CCc1cn(-c2ccccc2)nc1-c1ccccc1)Oc1ccc([N+](=O)[O-])cc1[N+](=O)[O-] [fragment 29, 2,4-Dinitrophenyl 3-(1,3-diphenyl-1H-pyrazol-4-yl)propanoate]
- isoTOP-ABPP reactivity ratio at lysine O43399_K90 [1]: 3.1
- isoTOP-ABPP reactivity ratio at lysine P19367_K510 (HK1 Hexokinase-1): 10.8

- isoTOP-ABPP reactivity ratio at lysine O43399_K90 [1]: 1.3
- isoTOP-ABPP reactivity ratio at lysine P19367_K510 (HK1 Hexokinase-1): 3.4
SMILES: O=C(CCc1coc2cc(F)ccc2c1=O)Oc1c(F)c(F)c(F)c(F)c1F [fragment 26, Pentafluorophenyl 3-(7-fluoro-4-oxo-4H-chromen-3-yl)propanoate]

- isoTOP-ABPP ratio, lysine O43399_K90 ([1]; 50 uM_231_sol_in vitro): 1.0
- isoTOP-ABPP ratio, lysine P19367_K510 (HK1 Hexokinase-1; 50 uM_231_sol_in vitro): 1.0
SMILES: NC(=O)c1cc(C(F)(F)F)cc(C(F)(F)F)c1 [fragment 51, reference compound]

- isoTOP-ABPP reactivity ratio at lysine O43399_K90 [1]: 1.4
- isoTOP-ABPP reactivity ratio at lysine P19367_K510 (HK1 Hexokinase-1): 1.3
SMILES: O=C(CN1C(=O)c2ccccc2C1=O)Oc1c(F)c(F)c(F)c(F)c1F [fragment 27, Pentafluorophenyl 2-(1,3-dioxoisoindolin-2-yl)acetate]

SMILES: Cn1cc(CC(=O)Oc2ccc([N+](=O)[O-])cc2[N+](=O)[O-])c2ccccc21 [fragment 32, 2,4-Dinitrophenyl 2-(1-methyl-1H-indol-3-yl)acetate]
- isoTOP-ABPP reactivity ratio at lysine O43399_K90 [1]: 2.7
- isoTOP-ABPP reactivity ratio at lysine P19367_K510 (HK1 Hexokinase-1): 8.6

SMILES: O=C(CCc1ccc2c(c1)OCO2)Oc1ccc([N+](=O)[O-])cc1[N+](=O)[O-] [fragment 45, 2,4-Dinitrophenyl 3-(benzo[d][1,3]dioxol-5-yl)propanoate]
- isoTOP-ABPP ratio, lysine O43399_K90 ([1]; 50 uM_231_sol_in vitro): 1.5
- isoTOP-ABPP ratio, lysine P19367_K510 (HK1 Hexokinase-1; 50 uM_231_sol_in vitro): 5.3

SMILES: O=C(CCc1coc2cc(F)ccc2c1=O)Oc1ccc([N+](=O)[O-])cc1[N+](=O)[O-] [fragment 36, 2,4-Dinitrophenyl 3-(7-fluoro-4-oxo-4H-chromen-3-yl)propanoate]
- isoTOP-ABPP ratio (R) at liganded lysine O43399_K90 [1]: 1.3
- isoTOP-ABPP ratio (R) at liganded lysine P19367_K510 (HK1 Hexokinase-1): 3.7

- isoTOP-ABPP ratio, lysine O43399_K90 ([1]; 100 uM_231_sol_in vitro): 2.9
- isoTOP-ABPP ratio, lysine P19367_K510 (HK1 Hexokinase-1; 100 uM_231_sol_in vitro): 1.1
SMILES: COC(=O)NC(=NC(=O)OCC1c2ccccc2-c2ccccc21)n1cccn1 [fragment 49, N-Methoxycarbonyl-N′-9-fluorenylmethoxycarbonyl-pyrazole-1-carboxamidine]

SMILES: O=C(CC12CC3CC(CC(C3)C1)C2)Oc1ccc([N+](=O)[O-])cc1[N+](=O)[O-] [fragment 38, 2,4-Dinitrophenyl 2-(adamantan-1-yl)acetate]
- isoTOP-ABPP ratio (R) at liganded lysine O43399_K90 [1]: 2.9
- isoTOP-ABPP ratio (R) at liganded lysine P19367_K510 (HK1 Hexokinase-1): 1.7

- R value (DMSO/fragment) for probe 1 labeling [1]: 1.5
- R value (DMSO/fragment) for probe 1 labeling (HK1 Hexokinase-1): 2.0
SMILES: COc1cc(CCC(=O)Oc2c(F)c(F)c(F)c(F)c2F)cc(OC)c1OC [fragment 23, Pentafluorophenyl 3-(3,4,5-trimethoxyphenyl)propanoate]

- R value (DMSO/fragment) for probe 1 labeling [1]: 3.6
- R value (DMSO/fragment) for probe 1 labeling (HK1 Hexokinase-1): 1.3
SMILES: Cn1cc(CC(=O)Oc2c(F)c(F)c(F)c(F)c2F)c2ccccc21 [fragment 22, Pentafluorophenyl 2-(1-methyl-1H-indol-3-yl)acetate]

SMILES: O=C(Oc1ccc([N+](=O)[O-])cc1[N+](=O)[O-])c1ccc2ccccc2n1 [fragment 35, 2,4-Dinitrophenyl quinoline-2-carboxylate]
- isoTOP-ABPP ratio (R) at liganded lysine O43399_K90 [1]: 1.3
- isoTOP-ABPP ratio (R) at liganded lysine P19367_K510 (HK1 Hexokinase-1): 1.1

- isoTOP-ABPP reactivity ratio at lysine O43399_K90 [1]: 1.9
SMILES: O=C(Oc1c(F)c(F)c(F)c(F)c1F)C1CCN(C(=O)OCc2ccccc2)CC1 [fragment 24, 1-Benzyl 4-(pentafluorophenyl) piperidine-1,4-dicarboxylate]

SMILES: O=C(Oc1ccc([N+](=O)[O-])cc1[N+](=O)[O-])c1ccccc1Nc1cccc(C(F)(F)F)c1 [fragment 40, 2,4-Dinitrophenyl 2-((3-(trifluoromethyl)phenyl)amino)benzoate]
- isoTOP-ABPP ratio (R) at liganded lysine O43399_K90 [1]: 1.2
